For the assay, the system named is Wnt/β-catenin pathway. In words: Wnt reporter assay (TCF-Luciferase, Firefly) in DBTRG-05MG cells. The following applies: Homo sapiens, 24 hours after compound addition. It is filed as cell-based. On the procedure: TCF-Luciferase: Three copies of a 4×TCF responsive elements were cloned into the pcDNA3.1/Zeo(+) vector (Invitrogen) after deletion of the constitutive CMV promoter and the insertion of the Firefly Luciferase from Promega (phFL-TK) to measure the activity of the Wnt/β-catenin pathway. The resulting plasmid was sequenced for quality control.
Cells were grown in 20 μg/ml Zeocin and 20 μg/ml Zeocin plus 30 μg/ml Hygromicin respectively. The cells were plated at a density of 6500 cells/well in poly-D-lysine pre-treated 96 well-plates.
IC50 determination: 36 hours after plating cells were incubated with 8-points (60 μM-40 μM-20 μM-10 μM-5 μM-1.66 μM-0.55 μM-0.185 μM) dilutions compound (0.6% DMSO (v/v)). Each compound was tested in triplicate in single plate. Luciferase detection was done with Dual-Luciferase Reporter Assay System (Promega). 24 hours after compound addition, media was removed and 30 μl of 1× lysis buffer was added to each well for 30 minutes. To each well 45 μl of Dual-Glo Luciferase reagent (Promega) were added and after 1 second delay Luciferase was detected for 1 second using Mithras LB940 instrument. After Firefly luciferase quantification 45 μl of Dual Stop & Glo reagent (Promega) were added to each well and Firefly Renilla was detected using the same parameters described before.
Data were expressed as % of control for Firefly and Renilla luciferase independently; values were calculated using XLFit version 4.2, with a four parameters sigmoid function (XLFit model 205).

SMILES strings stand for the structures.

`O=c1[nH]c2ccccc2c(=O)n1C[C@H]1CC[C@H](C(=O)N2CCN(c3ncccn3)CC2)CC1` [Example 1, trans-3-[4-(4-Pyrimidin-2-yl-piperazine-1-carbonyl)-cyclohexylmethyl]-1H-quinazoline-2,4-dione]: the IC50 is 0.3 to 30 µM.
The value for `Cn1c(=O)n(C[C@H]2CC[C@H](C(=O)N3CCN(c4ccccc4)CC3)CC2)c(=O)c2ccccc21` [Example 2, trans-1-Methyl-3-[4-(4-phenyl-piperazine-1-carbonyl)-cyclohexylmethyl]-1H-quinazoline-2,4-dione] was 0.3 to 30 µM.
The value for `O=C(C1CCCO1)N1CCN(C(=O)[C@H]2CC[C@H](Cn3c(=O)[nH]c4ccccc4c3=O)CC2)CC1` (stereo partly drawn) [Example 4, 3-{4-[4-(Tetrahydro-furan-2-carbonyl)-piperazine-1-carbonyl]-cyclohexylmethyl}-1H-quinazoline-2,4-dione] was 0.3 to 30 µM; that for `CC(C)C(=O)N1CCN(C(=O)[C@H]2CC[C@H](CN3C(=O)CC(c4ccccc4)NC3=O)CC2)CC1` (stereo partly drawn) [Example 6, 3-[trans-4-(4-Isobutyryl-piperazine-1-carbonyl)-cyclohexylmethyl]-6-phenyl-dihydro-pyrimidine-2,4-dione] was 0.3 to 30 µM.
Compound `O=C(C1CC1)N1CCN(C(=O)[C@H]2CC[C@H](CN3Cc4ccccc4NC3=O)CC2)CC1` [Example 7, 3-[trans-4-(4-Cyclopropanecarbonyl-piperazine-1-carbonyl)cyclohexylmethyl]-3,4-dihydro-1H-quinazolin-2-one] showed an IC50 of 0.3 to 30 µM.
The compound `COc1ccc2[nH]c(=O)n(C[C@H]3CC[C@H](C(=O)N4CCOCC4)CC3)c2c1` [Example 8, 6-Methoxy-1-[trans-4-(morpholine-4-carbonyl)-cyclohexylmethyl]-1,3-dihydro-benzoimidazol-2-one] registered an IC50 of 0.3 to 30 µM.
The value for `COc1ccc2c(c1)n(C[C@H]1CC[C@H](C(=O)N3CCOCC3)CC1)c(=O)n2C` [Example 9, 5-Methoxy-1-methyl-3-[trans-4-(morpholine-4-carbonyl)-cyclohexylmethyl]-1,3-dihydro-benzoimidazol-2-one] was 0.3 to 30 µM; that for `O=C(C1CC1)N1CCN(C(=O)[C@H]2CC[C@H](Cn3c(=O)[nH]c4ccc(Cl)cc43)CC2)CC1` [Example 11, 6-Chloro-1-[trans-4-(4-cyclopropanecarbonyl-piperazine-1-carbonyl)cyclohexylmethyl]-1,3-dihydro-benzoimidazol-2-one] was 0.3 to 30 µM.
The value for `CC(=O)N1CCN(C(=O)[C@H]2CC[C@H](CN3C(=O)Cc4ccccc4C3=O)CC2)CC1` [Example 12, 2-[trans-4-(4-Acetyl-piperazine-1-carbonyl)-cyclohexylmethyl]-4H-isoquinoline-1,3-dione] was 0.3 to 30 µM; that for `O=C1CN(C[C@H]2CC[C@H](C(=O)N3CCN(c4ccccn4)CC3)CC2)C(=O)c2ccccc2N1` [Example 13, 4-[trans-4-(4-pyridin-2-yl-piperazine-1-carbonyl)-cyclohexylmethyl]-3,4-dihydro-1H-benzo[e][1,4]diazepine-2,5-dione] was 0.3 to 30 µM; that for `CN1C(=O)CN(C[C@H]2CC[C@H](C(=O)N3CCN(c4ccccn4)CC3)CC2)C(=O)c2ccccc21` [Example 14, 1-Methyl-4-[trans-4-(4-pyridin-2-yl-piperazine-1-carbonyl)-cyclohexylmethyl]-3,4-dihydro-1H-benzo[e][1,4]diazepine-2,5-dione] was 0.3 to 30 µM.
`CN1C(=O)N(C[C@H]2CC[C@H](C(=O)N3CCN(c4ccccn4)CC3)CC2)C(=O)Cc2ccccc21` [Example 15, 1-Methyl-3-[trans-4-(4-pyridin-2-yl-piperazine-1-carbonyl)-cyclohexylmethyl]-1,5-dihydro-benzo[d][1,3]diazepine-2,4-dione] returned a 50% inhibitory concentration (IC50) of 0.3 to 30 µM.
The value for `O=C1Nc2ccccc2CCN1C[C@H]1CC[C@H](C(=O)N2CCN(c3ccccn3)CC2)CC1` [Example 16, 3-[trans-4-(4-pyridin-2-yl-piperazine-1-carbonyl)-cyclohexylmethyl]-1,3,4,5-tetrahydro-benzo[d][1,3]diazepin-2-one] was 0.3 to 30 µM.
The value for `COc1ccc2c(c1)n(C[C@H]1CC[C@H](C(=O)N3CCN(C(C)=O)CC3)CC1)c(=O)n2C` [Example 17, 3-[trans-4-(4-Acetyl-piperazine-1-carbonyl)-cyclohexylmethyl]-5-methoxy-1-methyl-1,3-dihydro-benzoimidazol-2-one] was 0.3 to 30 µM; that for `O=C(C1CCC(Cn2cnc3ccccc3c2=O)CC1)N1CCN(Cc2ccccc2)CC1` (stereo not drawn) [Example 19] was 0.3 to 30 µM.
The value for `O=C(C1CCC(Cn2c(=O)[nH]c3ccccc3c2=O)CC1)N1CCOCC1` (stereo not drawn) [Example 22] was 0.3 to 30 µM.
The compound `O=C(Nc1cccnc1)C1CCC(Cn2c(=O)[nH]c3ccccc3c2=O)CC1` (stereo not drawn) [Example 23] yielded an IC50 of 0.3 to 30 µM.
The figure for `O=c1[nH]c2ccccc2c(=O)n1C[C@H]1CC[C@H](C(=O)N2CCN(Cc3ccccc3)CC2)CC1` [Example 24] is 0.3 to 30 µM; for `O=c1[nH]c2ccc(Cl)cc2c(=O)n1C[C@H]1CC[C@H](C(=O)N2CCN(Cc3ccccc3)CC2)CC1` [Example 25] it is 0.3 to 30 µM.
The figure for `COc1ccc(N2CCN(C(=O)C3CCC(Cn4c(=O)[nH]c5ccccc5c4=O)CC3)CC2)cc1` (stereo not drawn) [Example 28] is 0.3 to 30 µM; for `CC(C)C(=O)N1CCN(C(=O)[C@H]2CC[C@H](Cn3c(=O)[nH]c4ccccc4c3=O)CC2)CC1` [Example 30] it is 0.3 to 30 µM; for `COCC(=O)N1CCN(C(=O)[C@H]2CC[C@H](Cn3c(=O)[nH]c4ccccc4c3=O)CC2)CC1` [Example 31] it is 0.3 to 30 µM.
The value for `O=C(CCC1CCCC1)N1CCN(C(=O)[C@H]2CC[C@H](Cn3c(=O)[nH]c4ccccc4c3=O)CC2)CC1` [Example 32] was 0.3 to 30 µM; that for `CC(=O)N1CCN(C(=O)[C@H]2CC[C@H](Cn3c(=O)[nH]c4ccccc4c3=O)CC2)CC1` [Example 33] was 0.3 to 30 µM; that for `CC(C)(C)NC(=O)N1CCN(C(=O)[C@H]2CC[C@H](Cn3c(=O)[nH]c4ccccc4c3=O)CC2)CC1` [Example 34] was 0.3 to 30 µM.
Regarding `CCCCC(=O)N1CCN(C(=O)[C@H]2CC[C@H](Cn3c(=O)[nH]c4ccccc4c3=O)CC2)CC1` [Example 35], the IC50 lay within 0.3 to 30 µM.
`O=C(c1ccno1)N1CCN(C(=O)[C@H]2CC[C@H](Cn3c(=O)[nH]c4ccccc4c3=O)CC2)CC1` [Example 36] displayed an IC50 of 0.3 to 30 µM.
As for `COc1ccc(CN2CCN(C(=O)[C@H]3CC[C@H](Cn4c(=O)[nH]c5ccccc5c4=O)CC3)CC2)cc1` [Example 38], the IC50 lay within 0.3 to 30 µM.
For the compound `COc1cccc(CN2CCN(C(=O)[C@H]3CC[C@H](Cn4c(=O)[nH]c5ccccc5c4=O)CC3)CC2)c1` [Example 39], the IC50 was 0.3 to 30 µM.
The figure for `Cc1ccc(CN2CCN(C(=O)[C@H]3CC[C@H](Cn4c(=O)[nH]c5ccccc5c4=O)CC3)CC2)o1` [Example 40] is 0.3 to 30 µM; for `CC(C)N1CCN(C(=O)[C@H]2CC[C@H](Cn3c(=O)[nH]c4ccccc4c3=O)CC2)CC1` [Example 41] it is 0.3 to 30 µM.
The value for `O=C(N1CCCC1)N1CCN(C(=O)[C@H]2CC[C@H](Cn3c(=O)[nH]c4ccccc4c3=O)CC2)CC1` [Example 42] was 0.3 to 30 µM; that for `CC(C)N1CCN(C(=O)[C@H]2CC[C@H](Cn3c(=O)[nH]c4ccc(Cl)cc4c3=O)CC2)CC1` [Example 43] was 0.3 to 30 µM.

In general, IC50 refers to the concentration that inhibits the measured activity by half.

The values above are taken from patent US8865704B2, “Wnt pathway antagonists” (Siena Biotech S.p.A., priority 2009, dated 2014).
